Data as given in ChEMBL document CHEMBL3879891, “Hydrazone compounds and their use” (2011).

Legend:
[1] = biological target: Transient receptor potential cation channel, subfamily M, member 5 (Rattus norvegicus) (UniProt A0A8I6AG64); assay: Activation of TRPM5 in Sprague-Dawley rat primary islets assessed as induction of 12 mM glucose-mediated insulin secretion after 3 hrs by ELISA
[2] = biological target: T1, Transient receptor potential cation channel subfamily M member 5 (Mus musculus) (UniProt Q9JJH7); assay: Activation of TRPM5 in SV40 expressing transgenic mouse Beta-TC-6 cells assessed as induction of 1 mM glucose-mediated insulin secretion after 2 hrs by ELISA
T1 sequence (whole entry): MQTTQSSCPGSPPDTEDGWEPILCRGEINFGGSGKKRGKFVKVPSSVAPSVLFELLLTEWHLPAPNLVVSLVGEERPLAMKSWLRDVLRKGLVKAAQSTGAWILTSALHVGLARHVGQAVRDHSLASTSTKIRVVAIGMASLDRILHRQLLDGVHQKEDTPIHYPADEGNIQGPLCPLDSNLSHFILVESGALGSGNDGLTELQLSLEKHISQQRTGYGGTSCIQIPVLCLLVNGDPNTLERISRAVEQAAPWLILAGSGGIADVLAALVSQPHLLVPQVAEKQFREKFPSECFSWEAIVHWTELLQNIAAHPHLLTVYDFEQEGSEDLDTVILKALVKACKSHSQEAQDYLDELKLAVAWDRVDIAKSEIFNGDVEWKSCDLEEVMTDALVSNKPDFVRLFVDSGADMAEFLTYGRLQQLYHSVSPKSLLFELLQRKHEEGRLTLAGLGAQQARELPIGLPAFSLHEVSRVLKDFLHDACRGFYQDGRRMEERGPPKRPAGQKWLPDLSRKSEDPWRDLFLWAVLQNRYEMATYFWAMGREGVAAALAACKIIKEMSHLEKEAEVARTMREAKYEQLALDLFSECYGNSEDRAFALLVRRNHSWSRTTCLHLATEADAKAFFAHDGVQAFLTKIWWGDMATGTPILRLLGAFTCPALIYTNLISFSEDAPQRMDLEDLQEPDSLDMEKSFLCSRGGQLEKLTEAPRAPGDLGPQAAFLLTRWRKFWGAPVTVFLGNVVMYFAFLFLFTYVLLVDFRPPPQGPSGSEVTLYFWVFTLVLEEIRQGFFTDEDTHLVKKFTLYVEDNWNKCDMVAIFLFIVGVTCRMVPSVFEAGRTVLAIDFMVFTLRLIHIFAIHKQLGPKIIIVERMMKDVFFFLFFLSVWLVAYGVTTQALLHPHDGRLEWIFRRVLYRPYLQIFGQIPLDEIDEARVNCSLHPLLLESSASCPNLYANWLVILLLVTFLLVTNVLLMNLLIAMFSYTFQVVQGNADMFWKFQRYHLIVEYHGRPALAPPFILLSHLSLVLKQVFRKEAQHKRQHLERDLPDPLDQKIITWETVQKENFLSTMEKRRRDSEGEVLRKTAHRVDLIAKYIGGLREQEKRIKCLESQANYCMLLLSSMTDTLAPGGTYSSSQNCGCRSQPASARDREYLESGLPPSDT

[3] = biological target: T1, Transient receptor potential cation channel subfamily M member 5 (Mus musculus); assay: Activation of TRPM5 in mouse GLUTag cells assessed as induction of 0.3 mM glucose-mediated GLP-1 secretion after 2 hrs by ELISA; type: cell-based

Measured: Activity

Transient receptor potential cation channel, subfamily M, member 5 (Rattus norvegicus), sequence (A0A8I6AG64 as listed by the source): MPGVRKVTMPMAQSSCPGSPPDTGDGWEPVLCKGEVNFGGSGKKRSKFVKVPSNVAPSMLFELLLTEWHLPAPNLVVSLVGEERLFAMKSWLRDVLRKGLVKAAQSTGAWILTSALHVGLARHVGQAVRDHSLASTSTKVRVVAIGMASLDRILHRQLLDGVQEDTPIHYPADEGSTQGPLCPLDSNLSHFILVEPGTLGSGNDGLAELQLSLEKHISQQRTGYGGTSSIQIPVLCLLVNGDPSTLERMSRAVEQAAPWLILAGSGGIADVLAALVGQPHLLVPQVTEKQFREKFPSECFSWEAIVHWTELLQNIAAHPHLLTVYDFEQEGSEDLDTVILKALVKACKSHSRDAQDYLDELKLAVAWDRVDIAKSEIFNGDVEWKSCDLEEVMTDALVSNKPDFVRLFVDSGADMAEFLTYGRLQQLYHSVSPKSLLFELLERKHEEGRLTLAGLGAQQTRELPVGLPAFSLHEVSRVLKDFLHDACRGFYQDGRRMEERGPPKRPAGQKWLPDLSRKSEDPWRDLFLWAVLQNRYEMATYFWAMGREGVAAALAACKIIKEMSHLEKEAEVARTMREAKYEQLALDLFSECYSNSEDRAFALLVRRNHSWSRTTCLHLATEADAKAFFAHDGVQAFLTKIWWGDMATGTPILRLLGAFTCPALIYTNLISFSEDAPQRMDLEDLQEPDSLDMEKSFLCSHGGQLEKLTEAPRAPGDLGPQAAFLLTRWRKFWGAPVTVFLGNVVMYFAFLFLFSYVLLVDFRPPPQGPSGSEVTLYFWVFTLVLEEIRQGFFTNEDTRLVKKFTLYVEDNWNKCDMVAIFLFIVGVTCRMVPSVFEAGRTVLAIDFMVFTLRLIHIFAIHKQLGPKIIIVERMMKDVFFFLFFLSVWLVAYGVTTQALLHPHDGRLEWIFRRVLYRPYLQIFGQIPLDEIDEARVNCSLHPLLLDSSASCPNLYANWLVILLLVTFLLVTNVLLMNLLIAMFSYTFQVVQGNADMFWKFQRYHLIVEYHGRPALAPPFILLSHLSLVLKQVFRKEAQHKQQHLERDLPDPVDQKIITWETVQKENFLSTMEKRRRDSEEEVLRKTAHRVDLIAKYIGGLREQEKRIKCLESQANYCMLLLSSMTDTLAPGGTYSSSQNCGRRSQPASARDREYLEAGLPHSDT

Cc1cc(/C=N/NC(=O)[C@@H]2C[C@H]2c2ccccc2)cc2cccnc12 (relative stereo)
active: [1] Dose-dependent effect | [2] Dose-dependent effect | [3] Dose-dependent effect
